Experiment [1] deals with human recombinant FKBP-12 (Homo sapiens, UniProt P62942). Put plainly: coupled colorimetric PPIase (rotamase) assay, FKBP-12. The experiment is classed as biochemical. The following applies: succinyl-AFPF-pNA substrate, chymotrypsin-coupled, 10° C., pH 8.0; read-out: IC50 for inhibition of the FKBP-12 enzyme. The text has this: The affinity of the compounds of the formula (I) for FKBP-12 can be determined in vitro in a coupled calorimetric PPlase assay using similar procedures to published methods (e.g. see Kofron, J. L., et al., Biochemistry, 1991,30, 6127-6134, Zarnt, T., et al., Biochem. J. 1995, 305, 159-164, Holt, D. A., et al., J. Am. Chem. Soc., 1993, 115, 9925-9938). In these methods, the cis-trans isomerisation of a hydrophobic amino acid-proline bond in a tetrapeptide substrate (e.g. the phenylalanine-proline bond in N-succinyl-ala-phe-pro-phe-p-nitroanilide [succinyl-AFPF-pNA]) can be determined by monitoring cleavage of pNA from the transPro-containing peptide by an excess of chymotrypsin.
The IC50 (the concentration of the compound of the formula (I) producing 50% inhibition) values were determined using the following assay methodology. Assay buffer (2.175 ml) (50 mM 4-(2-hydroxyethyl)-1-piperazineethanesulphonic acid (HEPES), 100 mM NaCl, 1 mM dithiothreitol (DTT), pH 8.0) is equilibrated to 10° C. in a cuvette. 12.5 μl of a solution of the present compound in DMSO, 250 μl of a 60 mg/ml solution of α-chymotrypsin in 1 mM aqueous hydrochloric acid and then 50 μl of a solution of human recombinant FKBP-12 (4.5 μM) in assay buffer are added and mixed. The reaction is initiated by addition of 12.5 μl of a solution of 20 mM succinyl-AFPF-pNA in DMSO. The absorbance at 390 nm is monitored for one minute collecting data every 0.25 second. Data are fitted with a first order rate equation with offset and the rate constant obtained corrected for the rate of uncatalysed isomerisation of the substrate. The rate constant determined at different inhibitor concentrations (10 nM to 100 μM) is expressed as % inhibition of the control rate constant. The IC50 is estimated using a non-linear least squares curve fitting routine of the sigmoidal dose response data.

A further experiment concerns the target T1, human recombinant FKBP52 (Homo sapiens, UniProt Q02790).
T1 sequence (Q02790 1-459): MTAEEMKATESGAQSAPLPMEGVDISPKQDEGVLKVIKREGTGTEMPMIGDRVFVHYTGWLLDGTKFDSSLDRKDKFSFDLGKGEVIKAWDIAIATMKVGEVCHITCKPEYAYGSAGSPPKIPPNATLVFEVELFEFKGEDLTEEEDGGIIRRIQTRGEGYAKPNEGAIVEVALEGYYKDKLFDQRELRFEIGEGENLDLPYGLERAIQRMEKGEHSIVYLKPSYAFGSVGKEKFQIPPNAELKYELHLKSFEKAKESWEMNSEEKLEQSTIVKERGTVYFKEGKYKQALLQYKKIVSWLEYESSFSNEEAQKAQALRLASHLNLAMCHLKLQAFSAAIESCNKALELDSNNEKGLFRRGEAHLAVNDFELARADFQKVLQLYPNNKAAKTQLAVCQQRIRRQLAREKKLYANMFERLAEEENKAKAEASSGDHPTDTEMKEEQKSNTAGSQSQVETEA
Put plainly: PPIase (rotamase) assay, FKBP-52. The experiment is classed as biochemical. Particulars: read-out: IC50 for inhibition of the FKBP-52 enzyme. How it is done:
Assay buffer (2.175 ml) (50 mM HEPES, 100 mM NaCl, 1 mM DTT, pH 8.0) is equilibrated to 10° C. in a cuvette. 12.5 μl of a solution of the present compound in DMSO, 250 μl of a 60 mg/ml solution of α-chymotrypsin in 1 mM aqueous hydrochloric acid and then 50 μL of a solution of human recombinant FKBP-12 (1.5 μM) in assay buffer are added and mixed. The reaction is initiated by adding 1 2.5 μl of a solution of anhydrous succinyl-ALPF-pNA (100 μM final concentration) in a 400 mM solution of LiCl in trifluoroethanol. The absorbance at 390 nm is monitored for 3 minutes collecting data every 0.5 second. Data are fitted with a first order rate equation with offset and the initial velocity (v) is calculated from the concentration of cis (re leu-pro bond)-succinyl-ALPF-pNA at to and the first order rate constant at different inhibitor concentrations (I). Data in the form vinh/vcontrol v. [I] are fitted with an equation for reversible tight binding inhibition to generate values for Ki,app (see Morrison, J. F., et al, Comments Mol. Cell Biophys., 1985, 2, 347-368). This analysis is used when the Ki,app approaches the concentration of FKBP-12 in the assay (30 nM). […] The same methodology is used to generate Ki,app for FKBP52 with the following modifications: Forty microlitres human recombinant FKBP52 (5.2 μM) is substituted for FKBP12 and 2.185 ml assay buffer are used in the assay. […]

Where a name gives a salt, the structure may show the parent alone.

Sequence of human recombinant FKBP-12 (P62942 whole entry): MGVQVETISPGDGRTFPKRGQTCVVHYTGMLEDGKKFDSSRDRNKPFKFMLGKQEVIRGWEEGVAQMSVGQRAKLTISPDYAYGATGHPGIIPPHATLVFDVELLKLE

Turning to `O=C(N[C@H]1CCN(Cc2cc3ccccc3nc2Cl)C1)[C@@H]1CCCCN1c1nc2ccccc2o1` [Example 16], in experiment [1], the IC50 (in general, the concentration needed to halve the response being measured) is below 1.2 µM.

Take `NC(=O)c1cccc(CN2CC[C@H](NC(=O)[C@@H]3CCCCN3c3nc4ccccc4o3)C2)c1` [Example 13a, (2S)-N^2-1-{(3S)-1-[3-(Aminocarbonyl)phenylmethyl]pyrrolidin-3-yl}-1-(1,3-benzoxazol-2-yl)-2-piperidinecarboxamide]: the IC50 in experiment [1] is below 1.2 µM.

Turning to `COc1cc(C(=O)N2CC[C@H](NC(=O)[C@@H]3CCCCN3c3nc4ccccc4o3)C2)nc2ccccc12` [Example 23, (2S)-N^2-{(3S)-1-[4-Methoxyquinolin-2-ylcarbonyl]pyrrolidin-3-yl}-1-(1,3-benzoxazol-2-yl)-2-piperidinecarboxamide], the IC50 in experiment [1] was below 1.2 µM.

As for `O=C(N[C@H]1CCN(C(=O)c2cc(N3CCCCC3)nc3ccccc23)C1)[C@@H]1CCCCN1c1nc2ccccc2o1` [Example 25, (2S)-N^2-{(3S)-1-[2-Piperidinoquinolin-4-ylcarbonyl]pyrrolidin-3-yl}-1-(1,3-benzoxazol-2-yl)-2-piperidinecarboxamide], the IC50 in experiment [1] was below 1.2 µM.

In the case of `O=C(N[C@H]1CCN(Cc2ccccn2)C1)[C@@H]1CCCCN1c1nc2ccccc2o1` [Example 6, (2S)-1-(1,3-Benzoxazol-2-yl)-N^2-[(3S)-1-(2-pyridinylmethyl)pyrrolidin-3-yl]-2-piperidinecarboxamide], the IC50 in experiment [1] was below 1.2 µM.

As to `O=C(N[C@H]1CCN(Cc2ccnc3ccccc23)C1)[C@@H]1CCCCN1c1nc2ccccc2o1` [Example 17], in experiment [1], the IC50 is below 1.2 µM.

With `COc1ccc2nc(-c3ccccc3)cc(C(=O)N3CC[C@H](NC(=O)[C@@H]4CCCCN4c4nc5ccccc5o4)C3)c2c1` [Example 24, (2S)-N^2-{(3S)-1-[6-Methoxy-2-phenylquinolin-4-ylcarbonyl]pyrrolidin-3-yl}-1-(1,3-benzoxazol-2-yl)-2-piperidinecarboxamide], the IC50 in experiment [1] is below 1.2 µM.

As to `CC(c1ccnc2ccccc12)N1CC[C@H](NC(=O)[C@@H]2CCCCN2c2nc3ccccc3o2)C1` (stereo partly shown) [Example 20], in experiment [1], the IC50 is below 1.2 µM.

On to `O=C(NC1CCCN(Cc2ccccc2)C1)[C@@H]1CCCCN1c1nc2ccccc2o1` (stereo partly drawn) [Example 30, (2S)-1-(1,3-Benzoxazol-2-yl)-N^2-(1-benzyl-3-piperidinyl)-2-piperidinecarboxamide], for which the half-maximal inhibitory concentration (IC50) in experiment [1] was below 1.2 µM.

As for `O=C(N[C@H]1CCN(Cc2ccccc2)C1)C1CCCCN1c1nc2ccccc2[nH]1` (stereo partly shown) [Example 41], the IC50 in experiment [1] was below 1.2 µM.

On to `O=C(N[C@H]1CCN(C(=O)c2cc(Cl)nc3ccccc23)C1)[C@@H]1CCCCN1c1nc2ccccc2o1` [Example 26, (2S)-N^2-{(3S)-1-[2-Chloroquinolin-4-ylcarbonyl]pyrrolidin-3-yl}-1-(1,3-benzoxazol-2-yl)-2-piperidinecarboxamide], for which the half-inhibitory concentration (IC50) in experiment [1] was below 1.2 µM.

Consider `O=C(N[C@H]1CCN(Cc2ccccc2)C1)[C@@H]1CCCCN1c1nc2ccc(Br)cc2o1` [Example 15, (2S)-N^2-[(3S)-1-Benzylpyrrolidin-3-yl]-1-(6-bromo-1,3-benzoxazol-2-yl)-2-piperidinecarboxamide], for which the IC50 in experiment [1] is below 1.2 µM.

For `O=C(N[C@H]1CN[C@H](COCc2ccccc2)C1)[C@@H]1CCCCN1c1nc2ccccc2o1` [Example 35, (2S)-1-(1,3-Benzoxazol-2-yl)-N^2-(3R,5S)-5-[(benzyloxy)methyl]pyrrolidin-3-yl-2-piperidinecarboxamide hydrochloride], in experiment [1], the IC50 is below 1.2 µM.

As to `O=C(N[C@H]1CCN(C(=O)c2cc(-c3ccccc3)nc3ccccc23)C1)[C@@H]1CCCCN1c1nc2ccccc2o1` [Example 22, (2S)-N^2-{(3S)-1-[2-Phenylquinolin-4-ylcarbonyl]pyrrolidin-3-yl}-1-(1,3-benzoxazol-2-yl)-2-piperidinecarboxamide], in experiment [1], the IC50 was below 1.2 µM.

As to `O=C(N[C@H]1CCN(C(=O)c2ccc3cn[nH]c3c2)C1)[C@@H]1CCCCN1c1nc2ccccc2o1` [Example 27, (2S)-N^2-{(3S)-1-[1H-benzpyrazol-6-ylcarbonyl]pyrrolidin-3-yl}-1-(1,3-benzoxazol-2-yl)-2-piperidinecarboxamide], the IC50 in experiment [1] is below 1.2 µM.

Regarding `O=C(N[C@H]1CCN(Cc2ccc3ccccc3n2)C1)[C@@H]1CCCCN1c1nc2ccccc2o1` [Example 18], the IC50 in experiment [1] was below 1.2 µM.

For `O=C(N[C@H]1CCN(Cc2ccccc2)C1)[C@@H]1CCCCN1c1nc2ccccc2o1` [Example 2, (2S)-1-(1,3-Benzoxazol-2-yl)-N^2-[(3S)-1-benzylpyrrolidin-3-yl]-2-piperidinecarboxamide], the IC50 in experiment [1] is below 1.2 µM; on human recombinant FKBP52, 2.79 µM.

As to `O=C(N[C@H]1CCN(C(=O)c2ccc3ccccc3n2)C1)[C@@H]1CCCCN1c1nc2ccccc2o1` [Example 21, (2S)-N^2-{(3S)-1-[Quinolin-2-ylcarbonyl]pyrrolidin-3-yl}-1-(1,3-benzoxazol-2-yl)-2-piperidinecarboxamide], in experiment [1], the IC50 was below 1.2 µM.

For `O=C(N[C@H]1CCN(Cc2cccnc2)C1)[C@@H]1CCCCN1c1nc2ccccc2o1` [Example 7, (2S)-1-(1,3-Benzoxazol-2-yl)-N^2-[(3S)-1-(3-pyridinylmethyl)pyrrolidin-3-yl]-2-piperidinecarboxamide], the IC50 in experiment [1] was below 1.2 µM.

Take `O=C(N[C@H]1CCN(Cc2cnc3ccccc3c2)C1)[C@@H]1CCCCN1c1nc2ccccc2o1` [Example 19]: in experiment [1], the IC50 is below 1.2 µM.

With `O=C(N[C@H]1CCN(Cc2ccncc2)C1)[C@@H]1CCCCN1c1nc2ccccc2o1` [Example 8, (2S)-1-(1,3-Benzoxazol-2-yl)-N^2-[(3S)-1-(4-pyridinylmethyl)pyrrolidin-3-yl]-2-piperidinecarboxamide], the IC50 in experiment [1] is below 1.2 µM.
